The record followed here is ChEMBL document CHEMBL5576130, “Non-Covalent Inhibitors of SARS-CoV-2 Papain-Like Protease (PLpro): In Vitro and In Vivo Antiviral Activity” (J Med Chem, 2024).

Data set [1] concerns SARS-CoV-2. Description: Antiviral activity against SARS-CoV-2 USA-WA1/2020 infected in African green monkey Vero E6 cells […] for 1 hrs followed by viral infection and measured after 48 hrs. In kind it is functional, organism-based. Particulars: Severe acute respiratory syndrome coronavirus 2, USA-WA1/2020, Vero C1008.
The subject of data set [2] is SARS-CoV-2. Description: Antiviral activity against SARS-CoV-2 USA-WA1/2020 infected in African green monkey Vero cells assessed as reduction in viral growth at 2 to 20 uM measured after 2 days by plaque assay. Particulars: Severe acute respiratory syndrome coronavirus 2, dose 2-20 µM, time 2.0 day. In kind it is functional, organism-based.
The test system of data set [3] is SARS-CoV-2. Description: Antiviral activity against SARS-CoV-2 USA-WA1/2020 infected in African green monkey Vero cells assessed as reduction in viral growth at 10 uM measured after 2 days by plaque assay. In kind it is functional, organism-based. Particulars: Severe acute respiratory syndrome coronavirus 2, time 2.0 day.
Data set [4] can be described thus: Plasma protein binding in human. In kind it is ADME, cell-free.
In data set [5] the test system is SARS-CoV-2. Description: Antiviral activity against SARS CoV-2. In kind it is functional, organism-based. Particulars: Severe acute respiratory syndrome coronavirus 2.

Activity calls are given as the source filed them. No cut-off for these calls is given here.

One may read the EC50 as the midpoint of the concentration-response curve. As to `COC(=O)/C=C/C(=O)NNC(=O)CCc1ccccc1C(=O)N[C@H](C)c1cccc2ccccc12`, the EC50 in the data set with SARS-CoV-2 [1] amounted to 0.26 µM. In the case of `Cc1ccc(NC2CNC2)cc1C(=O)N[C@H](C)c1cccc(-c2ccc(CNC(=O)C3CCCC3)s2)c1`, the result with SARS-CoV-2 [2] was inactive. With `Cc1ccc(NC2CNC2)cc1C(=O)N[C@H](C)c1cccc(-c2ccc(CN[C@H]3CC[C@@H](O)C3)s2)c1` (single isomer, unassigned), in the data set with SARS-CoV-2 [3], the outcome was inactive. Turning to `Cc1ccc(OC2CNC2)cc1C(=O)N[C@H](C)c1cccc(-c2ccc(CN3CCCC3)s2)c1`, the outcome in the data set on SARS-CoV-2 [2] was Active. In data set [4], `CC(=O)N1CCN(c2ccc(OCC3COC(Cn4ccnc4)(c4ccc(Cl)cc4Cl)O3)cc2)CC1` (stereo not drawn) [KETOCONAZOLE] showed a PPB of 99.3%.

In the data set on SARS-CoV-2 [5], `Nc1ccc2cc3ccc(N)cc3nc2c1` [PROFLAVINE] returned a concentration for a half-maximal effect (EC50) of 64 µM. As for `Cc1ccc(OCCN)cc1C(=O)N[C@H](C)c1cccc(-c2ccc(CN3CCCC3)s2)c1`, in the data set on SARS-CoV-2 [2], the outcome was inactive. Turning to `Cc1ccc(NC2CNC2)cc1C(=O)N[C@H](C)c1cccc(-c2ccc(CN3CCCC3)s2)c1`, the result in the data set with SARS-CoV-2 [2] was Active.
